Consider six molecules from PMC8657898, “Cytokinin Perception in Ancient Plants beyond Angiospermae” (International Journal of Molecular Sciences, 2021).

Test [1] relates to PaCHK1. Briefly: competition of unlabeled CKs with 3H-iP, tobacco leaf microsomes expressing the receptor. The format is binding, Picea abies.
The target in test [2] is T1, PpCHK2 (Physcomitrium patens, UniProt A0A068JG96). Described as above. The format is binding.
Test [3] deals with T2, PpCHK1 (Physcomitrium patens, UniProt A0A068JFF6). The test is described as above. The format is binding.
The target in test [4] is PaCHK2. The test is described as above. The format is binding, Picea abies.
In test [5] the test system is PpCHK3. As to conditions: previous data; cited from earlier work.
Test [6] deals with T3, SmCHK4a (Selaginella moellendorffii, UniProt D8R9F4). The test can be described thus: competition of unlabeled CKs with 3H-iP, tobacco leaf microsomes expressing the receptor. The format is binding.
Test [7] addresses T4, SmCHK6 (Selaginella moellendorffii, UniProt D8SUD5). Described as above. The format is binding.
The test system of test [8] is AHK3. As to conditions: AHK3 from A. thaliana; cited from earlier work.
Test [9] deals with PaCHK1. The test can be described thus: direct 3H-iP binding (saturation, pH dependence), tobacco leaf microsomes. Further details: species or system Picea abies. As to conditions: saturation curve of 3H-iP specific binding.
Test [10] has as its target T2, PpCHK1. The test is described as above. As to conditions: saturation curve of 3H-iP specific binding.
For test [11], the target named is T1, PpCHK2. Described as above. The note with it: saturation curve of 3H-iP specific binding.
Test [12] deals with PpCHK3. The test can be described thus: specific binding of 3H-iP, tobacco leaf microsomes. Further details: species or system Physcomitrium patens. The note with it: PpCHK3 sensory module; expression confirmed by immunoblotting. The protocol:
(§1) We experimentally analyzed the ligand-binding properties of CHK receptors from P. patens, S. moellendorffii, and P. abies using a radiolabeled ligand method and microsomes from tobacco leaves where these receptors were transiently expressed. Tritiated isopentenyladenine served as the labeled CK. PpCHK1 and 2 proteins from P. patens were tested in a full-length version, and otherwise sensory modules (SMs) flanked by TM helices were used. PpCHK1-3 represented canonical CHK receptor group, while PpCHK4 was a representative of the related sister group. […]
(§2) Of the eight cloned receptors, we detected no CK binding for PpCHK3 and PpCHK4, although expression of these proteins was confirmed by immunoblotting against the fused GFP domain (Figure 2). […]
(§3) pK7WGF2 and pB7FWG2 constructs were transformed to Agrobacterium tumefaciens strain GV3101 and transiently expressed in Nicotiana benthamiana leaves. […] Transient expression was assessed by means of immunoblotting of microsomal membranes with antibodies against GFP (Agrisera, AS15 2987) diluted 1:5000 as described in [15]. Background binding of ^3H-iP by endogenous CK receptors of N. benthamiana was assessed in control probes using microsomes from untreated leaves (Figure 2). […]
A general note: In western blotting, separated proteins are transferred to a membrane and probed.

Test [13] relates to PpCHK4. Briefly: specific binding of 3H-iP, tobacco leaf microsomes. More on the design: species or system Physcomitrium patens. The note with it: PpCHK4 sensory module; expression confirmed by immunoblotting. The protocol: as §1, §2, §3
Test [14] deals with PaCHK2. The test can be described thus: direct 3H-iP binding (saturation, pH dependence), tobacco leaf microsomes. The note with it: saturation curve of 3H-iP specific binding. More on the design: species or system Picea abies.
The target of test [15] is T4, SmCHK6. Described as above. As to conditions: saturation curve of 3H-iP specific binding.
Test [16] addresses T3, SmCHK4a. The description is as above. The note with it: saturation curve of 3H-iP specific binding.
Where [17] appears, read: KD for PaCHK1 divided by KD for PaCHK2, Table 1 values.
Setting [18] is: PaCHK1, competition with 3H-iP, Cheng-Prusoff calculation method, ± SE, read-out: KD of CK-Receptor Complexes.
Where [19] appears, read: PaCHK1, competition with 3H-iP, alternative calculation method (Appendix A), ± SE, read-out: KD of CK-receptor complexes.
Setting [20] is: PpCHK2, competition with 3H-iP, Cheng-Prusoff calculation method, ± SE, read-out: KD of CK-Receptor Complexes.
The mark [21] stands for this setting: PpCHK2, competition with 3H-iP, alternative calculation method (Appendix A), ± SE, read-out: KD of CK-receptor complexes.
Setting [22] is: PpCHK1, competition with 3H-iP, Cheng-Prusoff calculation method, ± SE, read-out: KD of CK-Receptor Complexes.
The mark [23] stands for this setting: PaCHK2, competition with 3H-iP, Cheng-Prusoff calculation method, ± SE, read-out: KD of CK-Receptor Complexes.
Setting [24] is: PaCHK2, competition with 3H-iP, alternative calculation method (Appendix A), ± SE, read-out: KD of CK-receptor complexes.
The mark [25] stands for this setting: read-out: KD of CK-Receptor Complexes.
Where [26] appears, read: read-out: KD of CK-receptor complexes.
[27] abbreviates: PpCHK1, competition with 3H-iP, alternative calculation method (Appendix A), ± SE, read-out: KD of CK-receptor complexes.
[28] abbreviates: SmCHK4a, competition with 3H-iP, Cheng-Prusoff calculation method, ± SE, read-out: KD of CK-Receptor Complexes.
Where [29] appears, read: SmCHK4a, competition with 3H-iP, alternative calculation method (Appendix A), ± SE, read-out: KD of CK-receptor complexes.
Setting [30] is: SmCHK6, competition with 3H-iP, Cheng-Prusoff calculation method, ± SE, read-out: KD of CK-Receptor Complexes.
The mark [31] stands for this setting: SmCHK6, competition with 3H-iP, alternative calculation method (Appendix A), ± SE, read-out: KD of CK-receptor complexes.

Like-named read-outs stand apart in the source and are kept apart here.

T4 sequence (D8SUD5 entry or part of it): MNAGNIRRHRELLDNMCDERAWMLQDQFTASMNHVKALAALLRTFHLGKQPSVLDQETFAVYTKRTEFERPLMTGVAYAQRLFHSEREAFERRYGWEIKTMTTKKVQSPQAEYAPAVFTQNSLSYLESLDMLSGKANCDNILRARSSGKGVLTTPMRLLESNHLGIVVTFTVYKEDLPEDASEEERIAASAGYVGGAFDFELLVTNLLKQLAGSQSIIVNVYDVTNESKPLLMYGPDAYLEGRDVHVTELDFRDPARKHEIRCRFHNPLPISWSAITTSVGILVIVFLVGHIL
T3 sequence (D8R9F4 entry or part of it): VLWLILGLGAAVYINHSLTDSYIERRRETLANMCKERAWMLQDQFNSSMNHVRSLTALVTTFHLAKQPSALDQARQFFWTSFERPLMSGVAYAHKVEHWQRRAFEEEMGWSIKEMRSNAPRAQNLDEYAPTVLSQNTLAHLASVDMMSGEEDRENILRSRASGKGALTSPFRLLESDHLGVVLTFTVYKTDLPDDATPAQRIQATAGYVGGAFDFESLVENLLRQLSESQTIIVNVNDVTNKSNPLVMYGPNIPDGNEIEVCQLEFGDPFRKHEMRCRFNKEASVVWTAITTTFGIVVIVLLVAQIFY
T2 sequence (A0A068JFF6 entry or part of it): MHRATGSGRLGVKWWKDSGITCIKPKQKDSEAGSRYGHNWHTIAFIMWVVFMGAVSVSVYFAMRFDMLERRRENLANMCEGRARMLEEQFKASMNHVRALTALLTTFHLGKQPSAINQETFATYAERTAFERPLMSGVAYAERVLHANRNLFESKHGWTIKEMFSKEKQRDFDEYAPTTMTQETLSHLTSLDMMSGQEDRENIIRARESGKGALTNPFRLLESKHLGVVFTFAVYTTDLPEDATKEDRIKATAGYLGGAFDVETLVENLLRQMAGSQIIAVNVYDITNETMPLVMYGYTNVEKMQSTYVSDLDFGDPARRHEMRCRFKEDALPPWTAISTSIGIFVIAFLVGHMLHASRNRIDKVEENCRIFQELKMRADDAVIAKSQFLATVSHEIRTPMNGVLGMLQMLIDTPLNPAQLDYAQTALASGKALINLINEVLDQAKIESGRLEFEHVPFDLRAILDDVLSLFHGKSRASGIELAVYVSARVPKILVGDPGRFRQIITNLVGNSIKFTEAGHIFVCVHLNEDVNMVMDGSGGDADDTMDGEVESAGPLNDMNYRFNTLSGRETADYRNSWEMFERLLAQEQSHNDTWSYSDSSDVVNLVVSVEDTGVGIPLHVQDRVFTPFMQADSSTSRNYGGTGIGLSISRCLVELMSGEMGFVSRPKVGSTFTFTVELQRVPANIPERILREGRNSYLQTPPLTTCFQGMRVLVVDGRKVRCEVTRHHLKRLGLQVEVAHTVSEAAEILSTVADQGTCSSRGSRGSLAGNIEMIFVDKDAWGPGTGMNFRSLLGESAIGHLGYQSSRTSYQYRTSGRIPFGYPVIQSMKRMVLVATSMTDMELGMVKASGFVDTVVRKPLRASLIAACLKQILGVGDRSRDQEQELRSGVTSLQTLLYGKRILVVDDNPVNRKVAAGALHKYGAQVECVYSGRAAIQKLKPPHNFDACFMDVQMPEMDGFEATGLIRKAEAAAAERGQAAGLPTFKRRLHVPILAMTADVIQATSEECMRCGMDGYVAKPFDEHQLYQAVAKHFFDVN
T1 sequence (A0A068JG96 entry or part of it): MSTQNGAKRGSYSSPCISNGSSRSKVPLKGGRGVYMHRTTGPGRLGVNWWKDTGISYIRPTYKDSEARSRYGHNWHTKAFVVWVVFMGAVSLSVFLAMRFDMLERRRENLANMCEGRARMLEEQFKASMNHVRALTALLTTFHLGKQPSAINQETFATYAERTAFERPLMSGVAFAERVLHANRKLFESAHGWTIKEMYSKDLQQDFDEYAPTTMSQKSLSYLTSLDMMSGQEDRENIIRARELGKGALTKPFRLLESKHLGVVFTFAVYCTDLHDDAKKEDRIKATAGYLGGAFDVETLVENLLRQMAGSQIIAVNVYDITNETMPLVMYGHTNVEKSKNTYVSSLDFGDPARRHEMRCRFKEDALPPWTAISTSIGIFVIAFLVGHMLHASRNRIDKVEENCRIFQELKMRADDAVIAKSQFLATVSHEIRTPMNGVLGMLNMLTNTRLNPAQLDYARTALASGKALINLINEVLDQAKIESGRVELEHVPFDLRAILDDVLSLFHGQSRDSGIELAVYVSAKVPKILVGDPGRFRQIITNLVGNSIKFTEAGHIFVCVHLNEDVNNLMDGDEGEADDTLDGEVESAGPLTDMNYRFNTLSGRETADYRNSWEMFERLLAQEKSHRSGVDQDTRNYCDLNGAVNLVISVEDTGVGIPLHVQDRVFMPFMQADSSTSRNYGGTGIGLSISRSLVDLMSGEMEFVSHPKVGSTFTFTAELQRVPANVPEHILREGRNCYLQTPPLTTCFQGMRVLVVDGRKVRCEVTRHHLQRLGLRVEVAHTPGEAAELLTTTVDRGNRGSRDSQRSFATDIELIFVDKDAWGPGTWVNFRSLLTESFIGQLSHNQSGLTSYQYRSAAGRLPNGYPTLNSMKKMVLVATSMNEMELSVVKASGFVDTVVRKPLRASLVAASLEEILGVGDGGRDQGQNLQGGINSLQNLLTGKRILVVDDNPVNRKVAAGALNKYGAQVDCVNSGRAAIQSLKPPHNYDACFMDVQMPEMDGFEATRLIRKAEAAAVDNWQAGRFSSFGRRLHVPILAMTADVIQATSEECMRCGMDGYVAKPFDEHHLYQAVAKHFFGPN

As usually defined, the Kd is the concentration at which binding is half-saturated. In the case of `O=C(Nc1ccccc1)Nc1cnns1` [TD, thidiazuron], the “PaCHK1/CHK2 affinity ratio (KD1/KD2)” value in test [1] (setting [17]) came out at 0.1. For the same molecule, the dissociation constant Kd in test [1] (setting [18]) is 6.7 ± 0.21 nM; in test [1] (setting [19]), 3.8 ± 0.6 nM; in test [2] (setting [20]) it was 13 ± 0.2 nM; in test [2] (setting [21]), 11.9 ± 2.8 nM; in test [3] (setting [22]), 23.8 ± 5.4 nM; in [4] (setting [23]), 64.5 ± 6.4 nM. Besides, in [4] (setting [24]), the Kd was 244 ± 94.8 nM. Also, the “PpCHK1/CHK2 affinity ratio (KD1/KD2)” value in test [3] (KD for PpCHK1 divided by KD for PpCHK2, Table 1 values) came out at 1.83.
As for `C/C(=C\CNc1ncnc2[nH]cnc12)CO` [tZ, trans-zeatin], the “PaCHK1/CHK2 affinity ratio (KD1/KD2)” value in test [1] was 7.21. Also, the Kd in test [1] (setting [25]) was 7.57 ± 0.37 nM; in test [1] (setting [26]) it was 5.9 ± 1 nM; in [2] (setting [20]) it was 18.1 ± 1.5 nM; in test [2] (setting [21]) it was 12.4 ± 1.5 nM; in test [3] (setting [22]) it was 36.9 ± 2 nM; in test [3] (setting [27]), 24.8 ± 2.9 nM. The Kd in test [4] (setting [25]) was determined as 1.05 ± 0.09 nM; in [4] (setting [26]), 1.3 ± 0.4 nM. Further, the “PpCHK1/CHK2 affinity ratio (KD1/KD2)” value in test [3] (microsomes) came out at 2.04. The “binding of labeled tZ” value in [5] was “lacks the ability to bind”.
As to `C/C(=C/CNc1ncnc2nc[nH]c12)CO` [cZ, cis-zeatin], the “PaCHK1/CHK2 affinity ratio (KD1/KD2)” value in test [1] came to 23.4. In addition, the “cZ/tZ KD ratio” value in test [1] is given as 55.4; in test [2], 1.89; in test [6] it was 2.58; in test [3], 2.79; in test [4] it was 17.0. Further, the dissociation constant (Kd) is 419 ± 56 nM in [1] (setting [25]); 286 ± 69.4 nM in test [1] (setting [26]); 34.2 ± 9.3 nM in [2] (setting [25]); 48.6 ± 9.7 nM in test [2] (setting [26]); 20.6 ± 2.6 nM in test [6] (setting [25]); 20 ± 4.9 nM in [6] (setting [26]). Further, the equilibrium dissociation constant (Kd) in test [7] (setting [25]) is 16.6 ± 2.4 nM; in [7] (setting [26]), 39 ± 5.1 nM; in test [3] (setting [25]) it was 103 ± 15 nM; in test [3] (setting [26]) it was 94.4 ± 26.3 nM; in test [4] (setting [25]), 17.9 ± 2.9 nM; in [4] (setting [26]), 22.7 ± 3.2 nM. The “PpCHK1/CHK2 affinity ratio (KD1/KD2)” value in test [3] came out at 3.01. Besides, in [8], the “cZ/tZ KD ratio (affinity for tZ exceeds that for cZ)” value is on record as 376 folds.
In the case of `CC(C)=CCNc1ncnc2nc[nH]c12` [iP, isopentenyladenine], the Kd in test [1] (setting [18]) is 3.6 ± 0.17 nM; in test [1] (setting [19]) it was 3 ± 0.7 nM; in test [2] (setting [21]) it was 0.9 nM; in test [6] (setting [28]), 1.6 ± 0.13 nM; in [6] (setting [29]), 0.8 ± 0.2 nM; in test [9], 3.89 nM. The Kd is 1.59 nM in [10]; 1.7 ± 0.16 nM in test [7] (setting [30]); 2.5 ± 0.8 nM in test [7] (setting [31]); 1.45 nM in [11]; 1.2 ± 0.3 nM in [3] (setting [27]); 2.03 nM in test [14]. Further, the dissociation constant (Kd) in [4] (setting [23]) is 2.2 ± 0.08 nM; in test [15], 1.75 nM; in test [16], 1.56 nM. In addition, the “binding of labeled iP” value in [12] and in test [13] was “did not recognize” in each case.
Turning to `c1ccc(CNc2ncnc3nc[nH]c23)cc1` [BA, benzyladenine], the equilibrium dissociation constant (Kd) in test [1] (setting [18]) was 61.9 ± 1.3 nM; in test [1] (setting [19]) it was 38.4 ± 2.6 nM; in test [2] (setting [20]) it was 10.7 ± 0.5 nM; in test [2] (setting [21]) it was 14.9 ± 1.2 nM; in [6] (setting [28]), 6.91 ± 0.34 nM; in test [6] (setting [29]) it was 3.2 ± 0.8 nM. Besides, the Kd in test [7] (setting [30]) was 2.28 ± 0.7 nM; in test [7] (setting [31]), 2.9 ± 0.4 nM; in [3] (setting [22]) it was 13.9 ± 0.1 nM; in test [3] (setting [27]) it was 12.8 ± 3 nM; in test [4] (setting [23]) it was 13.5 ± 1.6 nM; in test [4] (setting [24]), 12.3 ± 3.9 nM.
Regarding `CC(CO)CCNc1ncnc2nc[nH]c12` (stereo not drawn) [DZ, dihydrozeatin], the “PaCHK1/CHK2 affinity ratio (KD1/KD2)” value in test [1] (setting [17]) turned out to be 16.8. In addition, the Kd in test [1] (setting [18]) is 377 ± 27 nM; in [1] (setting [19]), 244 ± 25.9 nM; in [2] (setting [20]) it was 323 ± 97 nM; in [2] (setting [21]) it was 501 ± 74.7 nM; in test [3] (setting [22]) it was 507 ± 42 nM; in [3] (setting [27]), 676 ± 14.4 nM. In addition, the results for the Kd in [4] (setting [23]) and in test [4] (setting [24]) were 22.4 ± 2.9 nM and 29.1 ± 5.4 nM, respectively.
